Assay results taken from publication PMC12977544, “Phenotypic high-throughput screening identifies modulators of gut microbial choline metabolism” (mBio, 2026).
pEC50: −log10 of the molar value. Read-outs that look alike come from different tables or passages of the source. One block for each compound: values may come before it.

Key:
Assay in all cases: TMA inhibition in bacterial whole cells (LC–MS/MS of d9-TMA from d9-choline)
E. coli MS 200-1 = assay type: cell-based, Escherichia coli MS 200-1
Method: (§1) For TMA inhibition assays, E. coli and P. mirabilis were grown in NCE medium supplemented with 20 mM choline chloride, A. hydrogenalis was grown in MEGA medium supplemented with 3 mM choline chloride, and C. sporogenes was grown in BHI medium supplemented with 20 mM of choline chloride to induce expression of the cut gene cluster. For MIC assays, all bacteria strains were grown in MEGA medium.
(§2) Compounds were stored as 10 mM DMSO stocks at –20°C and diluted in DMSO to prepare varying concentrations of inhibitors for testing. Bacteria were grown anaerobically overnight in media supplemented with choline as described above. Cells were pelleted and resuspended in PBS, and d9-choline chloride was added to a final concentration of 1 mM. The final OD600 of the PBS cell resuspensions is as follows: 0.4 (E. coli), 0.15–0.2 (P. mirabilis), 0.2 (C. sporogenes), and 0.4 (A. hydrogenalis). The resuspended cells were added to 96-well plates containing inhibitors (final concentration of 1% DMSO, with final inhibitor concentrations ranging between 0 and 325 µM). The plates were sealed and incubated for 75 min (or 90 min for P. mirabilis) at 37°C. Following incubation, the plates were removed from the anaerobic chamber and analyzed immediately or kept at –20°C until LC–MS/MS analysis. Each inhibitor concentration was tested in triplicate. EC50 values were calculated with GraphPad Prism by fitting the log(inhibitor) vs response—Variable slope (four-parameter) model for non-linear regression.
(§3) Samples were kept frozen until analysis and kept cold on ice during handling due to the volatility of TMA. Bacterial cell resuspensions in PBS were diluted 100-fold in LCMS-grade acetonitrile with 0.1% formic acid to lyse cells, precipitate proteins, and extract metabolites. Samples were centrifuged at 4,000 rpm for 10 min at 4°C to pellet proteins. The supernatants were then further diluted 20-fold in LCMS-grade acetonitrile with 0.1% formic acid, and the resulting solution was analyzed by LC–MS/MS.
(§4) LC–MS/MS analysis was performed on an Agilent 1290/6470 Triple Quadrupole LC–MS instrument (Agilent Technologies) using electrospray ionization. The mass spectrometer was operated in multiple reaction monitoring (MRM) mode with positive ionization monitoring. The precursor–product ion pairs used in MRM mode were as follows: m/z 69.1m/z → 49.1 (d9-TMA) and m/z 113.2 m/z → 69.1 (d9-choline). The capillary voltage was set to 4.0 kV, and the fragmentor voltage was set to 30 V (d9-TMA) and 115 V (d9-choline). The collision energy for the precursor–product ion pairs was set to 29 V (d9-TMA) and 21 V (d9-choline). MS^1 resolution was set to wide and MS^2 resolution to unit. The drying gas temperature was maintained at 250°C, with a flow rate of 11 L/min and a nebulizer pressure of 45 psi. The time filter width used was 0.07 min. The injection volume of all samples was 1 μL. Samples were injected onto InfinityLab Poroshell 120 (Agilent) HILIC columns (2.7 μm, 100 mm × 2.1 mm, 100 Å) preceded by InfinityLab Poroshell 120 HILIC guard columns (2.1 mm, 1.9µm UHPLC guard). The LC conditions on the binary pump were as follows: a gradient of 5–35% A increasing over 1.95 min (1.2 mL/min), a gradient of 35–5% A decreasing over 0.05 min (1.6 mL/min), and held at 5% A for 0.5 min (2 mL/min). […] Solvent A was 10 mM ammonium formate with 0.1% formic acid, and solvent B was acetonitrile with 0.1% formic acid. Data analysis was performed with Mass Hunter Workstation Data Acquisition and Qualitative Analysis software (Agilent Technologies).

[1] = system: Clostridium sporogenes ATCC 15579; assay type: cell-based; conditions: 1 mM d9-choline in PBS, 75 min, 37°C, anaerobic
Method: as §1, §2, §3, §4

[2] = system: Proteus mirabilis ATCC 29906; assay type: cell-based; conditions: 1 mM d9-choline in PBS, 90 min, 37°C, anaerobic; for pEC50: read-out: EC50 in whole cells, P. mirabilis (TMA inhibition)
Method: as §1, §2, §3, §4

[3] = system: Anaerococcus hydrogenalis DSM 7454; assay type: cell-based; conditions: 1 mM d9-choline in PBS, 75 min, 37°C, anaerobic
Method: as §1, §2, §3, §4

[4] = 1 mM d9-choline in PBS, 75 min, 37°C, anaerobic
[5] = Escherichia coli, MS2001, 1.25 h, 1 mM d9-choline in PBS, 75 min, 37°C, anaerobic
[6] = Anaerococcus hydrogenalis, DSM7454, 1.25 h
[7] = Clostridium sporogenes, ATCC15579, 1.25 h
[8] = Proteus mirabilis, ATCC29906, 1.5 h

Compound: Cc1ccc(-c2ncc(C(=O)NCCCN3CCC(C)CC3)s2)cc1C [Compound 14]
pEC50 (E. coli MS 200-1; [4]): 4.57 | pEC50 [1]: 3.67 | pEC50 [2]: 3.71

Compound: Cc1ccc(-c2cc(C(=O)NCCC3=CCCCC3)c(C)[nH]2)cc1C [C00006]
pEC50 (E. coli MS 200-1; [5]): < 4.00 | EC50 in whole cells, C. sporogenes (TMA inhibition) [1]: No inhibition at 100

Compound: Cc1ccc(-c2cc(C(=O)NCCCN3CCCCC3)c(C)[nH]2)cc1C [C00015]
pEC50 (E. coli MS 200-1; [5]): 5.00 | pEC50 [3, 6]: 3.61 | pEC50 [1, 7]: 3.57 | pEC50 [2, 8]: 3.71

Compound: Cc1ccc(-c2cc(C(=O)NCCCCN3CCC(C)CC3)c(C)[nH]2)cc1C [C00004]
pEC50 (E. coli MS 200-1; [5]): 5.30 | pEC50 [3, 6]: 4.57 | pEC50 [1, 7]: 3.86 | pEC50 [2, 8]: 4.46

Compound: Cc1ccc(-c2cc(C(=O)NCCCN3CCC(C)CC3)cs2)cc1C [Compound 13]
pEC50 (E. coli MS 200-1; [4]): 4.85 | pEC50 [1]: 4.07 | pEC50 [2]: 4.30

Compound: Cc1ccc(-c2cc(C(=O)NCCCCCN3CCCCCC3)c(C)[nH]2)cc1C [C00019]
pEC50 (E. coli MS 200-1; [5]): 5.70

pEC50 (E. coli MS 200-1; [4]): 4.68 | pEC50 [2]: 4.01
Compound: Cc1ccc(-c2cc(C(=O)NCCCN3CCC(C)CC3)cn2C)cc1C [Compound 15]

Compound: Cc1ccc(-c2cc(C(=O)NCCN)c(C)[nH]2)cc1C [C00008]
pEC50 (E. coli MS 200-1; [5]): 3.85 | EC50 in whole cells, C. sporogenes (TMA inhibition) [1]: No inhibition at 312 | EC50 in whole cells, P. mirabilis (TMA inhibition) [2]: No inhibition at 312

Compound: Cc1[nH]c(-c2ccccc2)cc1C(=O)NCCCN1CCC(C)CC1 [Compound 22]
pEC50 (E. coli MS 200-1; [4]): 5.15 | pEC50 [3]: 4.62 | pEC50 [1]: 3.83 | pEC50 [2]: 3.80

Compound: Cc1cc(C)cc(-c2cc(C(=O)NCCCN3CCC(C)CC3)c(C)[nH]2)c1 [Compound 25]
pEC50 (E. coli MS 200-1; [4]): 5.22 | pEC50 [3]: 4.72 | pEC50 [1]: 3.88 | pEC50 [2]: 4.55

Compound: Cc1ccc(-c2cc(C(=O)NCCCN3CCC(C)CC3)c(C)n2-c2ccccc2)cc1C [Compound 18]
pEC50 (E. coli MS 200-1; [4]): 3.31 | pEC50 [1]: 5.52

Compound: C#CCn1c(-c2ccc(C)c(C)c2)cc(C(=O)NCCCN2CCC(C)CC2)c1C [Compound 16]
pEC50 (E. coli MS 200-1; [4]): 4.41 | pEC50 [1]: 5.30

Compound: Cc1ccc(-c2c[nH]c(C(=O)NCCCN3CCC(C)CC3)c2)cc1C [Compound 11]
pEC50 (E. coli MS 200-1; [4]): 4.89 | pEC50 [1]: < 3.51 | pEC50 [2]: 4.38

Compound: Cc1ccc(-c2cc(C(=O)NCCCN3CCN(C)C(=O)C3)c(C)[nH]2)cc1C [C00013]
pEC50 (E. coli MS 200-1; [5]): < 3.90 | pEC50 [1, 7]: < 3.51 | EC50 in whole cells, P. mirabilis (TMA inhibition) [2]: No inhibition at 312

Compound: Cc1ccc(-c2cc(C(=O)NCCCN3CCCCCC3)c(C)[nH]2)cc1C [C00016]
pEC50 (E. coli MS 200-1; [5]): 5.70 | pEC50 [3, 6]: 4.37 | pEC50 [1, 7]: 3.98 | pEC50 [2, 8]: 4.40

Compound: CCc1[nH]c(-c2ccc(C)c(C)c2)cc1C(=O)NCCCN1CCC(C)CC1 [Compound 9]
pEC50 (E. coli MS 200-1; [4]): 4.46 | pEC50 [1]: 3.99

Compound: Cc1ccc(-c2cc(C(=O)NCCCCCN3CCC(C)CC3)c(C)[nH]2)cc1C [C00005]
pEC50 (E. coli MS 200-1; [5]): 4.96 | pEC50 [3, 6]: 4.48 | pEC50 [1, 7]: 4.08 | pEC50 [2, 8]: 4.18

Compound: CCCN(CCC)CCNC(=O)c1cc(-c2ccc(C)c(C)c2)[nH]c1C [C00010]
pEC50 (E. coli MS 200-1; [5]): 3.70 | pEC50 [1, 7]: < 3.51 | pEC50 [2, 8]: < 3.51

Compound: Cc1ccc(-c2cc(C(=O)NCCN3CCC(C)CC3)c(C)[nH]2)cc1C [C00003]
pEC50 (E. coli MS 200-1; [5]): 5.15 | pEC50 [3, 6]: 3.75 | pEC50 [1, 7]: 3.67 | pEC50 [2, 8]: 4.19

Compound: Cc1ccc(-c2cc(C(=O)NCCCN3CCCC3)c(C)[nH]2)cc1C [C00014]
pEC50 (E. coli MS 200-1; [5]): 4.96 | pEC50 [3, 6]: 4.08 | pEC50 [1, 7]: 4.11 | pEC50 [2, 8]: 3.98

Compound: Cc1ccc(-c2cc(C(=O)NCCCN3CCC(C)CC3)c(C)o2)cc1C [Compound 12]
pEC50 (E. coli MS 200-1; [4]): 4.82 | pEC50 [3]: 4.27 | pEC50 [2]: < 3.51

Compound: Cc1ccc(-c2[nH]cc(C(=O)NCCCN3CCC(C)CC3)c2C)cc1C [Compound 8]
pEC50 (E. coli MS 200-1; [4]): < 3.90 | Fold increase of EC50 in E. coli (E. coli MS 200-1; compared with compound 6): more than 10 fold | pEC50 [1]: 4.01 | pEC50 [2]: 3.88

Compound: Cc1ccc(-c2cc(C(=O)NCCCN3CCCCCCC3)c(C)[nH]2)cc1C [C00017]
pEC50 (E. coli MS 200-1; [5]): 5.52 | pEC50 [3, 6]: 4.55 | pEC50 [1, 7]: 4.40 | pEC50 [2, 8]: 4.55

Compound: Cc1ccc(-c2cc(C(=O)NCCCN3CCC(C)CC3)c(C)[nH]2)cc1C [C00002]
pEC50 (E. coli MS 200-1; [5]): 5.05

Compound: Cc1ccc(-c2cc(C(=O)NCCCN3CCOCC3)c(C)[nH]2)cc1C [C00011]
pEC50 (E. coli MS 200-1; [5]): < 3.90 | EC50 in whole cells, C. sporogenes (TMA inhibition) [1]: No inhibition at 312 | EC50 in whole cells, P. mirabilis (TMA inhibition) [2]: No inhibition at 312

Compound: COCCNC(=O)c1cc(-c2ccc(C)c(C)c2)[nH]c1C [C00007]
EC50 in whole cells, E. coli (TMA inhibition) (E. coli MS 200-1; [4]): No inhibition at 100 | EC50 in whole cells, C. sporogenes (TMA inhibition) [1]: No inhibition at 100

Compound: Cc1ccc(-c2cc(C(=O)NCCCN3CCN(C)CC3)c(C)[nH]2)cc1C [C00012]
pEC50 (E. coli MS 200-1; [5]): 4.85 | EC50 in whole cells, A. hydrogenalis (TMA inhibition) [3]: No inhibition at 312 | pEC50 [1, 7]: 4.04 | pEC50 [2, 8]: 4.24

Compound: Cc1[nH]c(C2CCCCC2)cc1C(=O)NCCCN1CCC(C)CC1 [Compound 21]
pEC50 (E. coli MS 200-1; [4]): 4.29 | pEC50 [3]: 4.49 | pEC50 [1]: 5.10

Compound: Cc1ccc(-c2cc(C(=O)NCCCCN3CCCCCC3)c(C)[nH]2)cc1C [C00018]
pEC50 (E. coli MS 200-1; [5]): 5.10 | pEC50 [3, 6]: 5.15 | pEC50 [1, 7]: 4.17 | pEC50 [2, 8]: 4.48

Compound: Cc1ccc(-c2cc(C(=O)NCCCN3CCC(C)CC3)c(C)[nH]2)cc1 [Compound 24]
pEC50 (E. coli MS 200-1; [4]): 4.04 | pEC50 [2]: 3.88

Compound: Cc1ccc(-c2ccc(C(=O)NCCCN3CCC(C)CC3)[nH]2)cc1C [Compound 10]
pEC50 (E. coli MS 200-1; [4]): 4.01 | pEC50 [1]: 3.51 | pEC50 [2]: 4.20

Compound: CCCNCCNC(=O)c1cc(-c2ccc(C)c(C)c2)[nH]c1C [C00009]
pEC50 (E. coli MS 200-1; [5]): 4.22 | pEC50 [1, 7]: < 3.51 | pEC50 [2, 8]: < 3.51

Compound: Cc1ccc(-c2cc(C(=O)NCCCN3CCC(C)CC3)c(C)n2C2CCCC2)cc1C [Compound 17]
pEC50 (E. coli MS 200-1; [4]): 4.16 | pEC50 [1]: 5.10
